# ChEMBL document CHEMBL1201862, “PubChem BioAssay data set” (2004)
#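 Test compounds were applied to cells in 96-well plates for 48 hours at 5 doses. GI50 = concentration required for 50% inhibition of growth.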 Active and inactive are the calls of the source. Cut-off read from the data, not from the text of the source: active = GI50 up to about 1.1 µM and inactive = higher.
# Legend:
# Experiment in all cases: NCI-60 cell line screen, 48 h
# COLO 205 = test system: COLO 205
# SR = test system: SR
# BT-549 = test system: BT-549
# DU-145 = test system: DU-145
# MOLT-4 = test system: MOLT-4
# SF-539 = test system: SF-539
# NCI-H460 = test system: NCI-H460
# HCT-15 = test system: HCT-15
# EKVX = test system: EKVX
# NCI-H23 = test system: NCI-H23
# CAKI-1 = test system: CAKI-1
# MDA-N = test system: MDA-N
# LOX IMVI = test system: LOX IMVI
# SW-620 = test system: SW-620
# HCC 2998 = test system: HCC 2998
# SF-268 = test system: SF-268
# OVCAR-3 = test system: OVCAR-3
# K562 = test system: K562
# KM12 = test system: KM12
# HOP-92 = test system: HOP-92
SMILES,GI50 (COLO 205),GI50 (SR),GI50 (BT-549),GI50 (DU-145),GI50 (MOLT-4),GI50 (SF-539),GI50 (NCI-H460),GI50 (HCT-15),GI50 (EKVX),GI50 (NCI-H23),GI50 (CAKI-1),GI50 (MDA-N),GI50 (LOX IMVI),GI50 (SW-620),GI50 (HCC 2998),GI50 (SF-268),GI50 (OVCAR-3),GI50 (K562),GI50 (KM12),GI50 (HOP-92)
C=C1C(C)C2C(Cc3ccccc3)NC(=O)C23C(OC(C)=O)/C=C/C(C)(O)CC(C)C/C=C/C3C1O (stereo not given),0.104 µM (active),27.5 µM (inactive),2.67 µM (inactive),> 100 µM (inactive),5.15 µM (inactive),0.0836 µM (active),0.29 µM (active),2.7 µM,1.72 µM (inactive),13.8 µM (inactive),0.0288 µM (active),> 100 µM (inactive),0.0593 µM (active),90.6 µM (inactive),16.1 µM (inactive),0.519 µM (active),2.19 µM (inactive),23.3 µM (inactive),97.3 µM (inactive),0.154 µM (active)
O=[N+]([O-])c1ccc(Oc2c(Cl)cc(S(=O)(=O)N/C(=N\O)Nc3ccc(Cl)cc3)cc2Cl)c(Cl)c1,18.8 µM (inactive),10.7 µM (inactive),14.8 µM (inactive),13.6 µM (inactive),10.8 µM (inactive),20.3 µM (inactive),15.6 µM (inactive),16.3 µM,14.8 µM (inactive),17.7 µM (inactive),14.8 µM (inactive),15.6 µM (inactive),17.1 µM (inactive),24.9 µM (inactive),16 µM (inactive),13.6 µM (inactive),12.2 µM (inactive),15.8 µM (inactive),13.7 µM (inactive),12.8 µM (inactive)
